Patent US7070974B1, “Metalloproteases of the neprilysin family” (Universite de Montreal, priority 1999, dated 2006)
Starred links: 1 amine or outer side, 2 acyl side, 3 side chain; linkers in the order of their positions; H or OH if unused. Non-standard residues stand in square brackets, D forms with d. No end group written: not given here. Tyr(3,5-3H) = [3H]c1cc(C[C@H](N[*:1])C(=O)[*:2])cc([3H])c1O[*:3]

Legend:
[1] = molecular target: T1, sNEP (engineered soluble form of NEP) (Oryctolagus cuniculus, UniProt P08049); assay: sNEP enzymatic activity assay with (Tyrosyl-[3,5-3H])(D-Ala2)-Leu5-enkephalin as substrate; type: biochemical
T1 construct: Fusion of a cleavable signal peptide to the ectodomain of neutral endopeptidase; cleavable signal peptide of proopiomelanocortin (replaces cytosolic and transmembrane domains) (N, cleaved yes); made in house; host or cells: LLC-PK1 cells transfected with pRcCMV-sNEP; concentrated culture medium
T1 sequence (P08049 52-750 limits assumed): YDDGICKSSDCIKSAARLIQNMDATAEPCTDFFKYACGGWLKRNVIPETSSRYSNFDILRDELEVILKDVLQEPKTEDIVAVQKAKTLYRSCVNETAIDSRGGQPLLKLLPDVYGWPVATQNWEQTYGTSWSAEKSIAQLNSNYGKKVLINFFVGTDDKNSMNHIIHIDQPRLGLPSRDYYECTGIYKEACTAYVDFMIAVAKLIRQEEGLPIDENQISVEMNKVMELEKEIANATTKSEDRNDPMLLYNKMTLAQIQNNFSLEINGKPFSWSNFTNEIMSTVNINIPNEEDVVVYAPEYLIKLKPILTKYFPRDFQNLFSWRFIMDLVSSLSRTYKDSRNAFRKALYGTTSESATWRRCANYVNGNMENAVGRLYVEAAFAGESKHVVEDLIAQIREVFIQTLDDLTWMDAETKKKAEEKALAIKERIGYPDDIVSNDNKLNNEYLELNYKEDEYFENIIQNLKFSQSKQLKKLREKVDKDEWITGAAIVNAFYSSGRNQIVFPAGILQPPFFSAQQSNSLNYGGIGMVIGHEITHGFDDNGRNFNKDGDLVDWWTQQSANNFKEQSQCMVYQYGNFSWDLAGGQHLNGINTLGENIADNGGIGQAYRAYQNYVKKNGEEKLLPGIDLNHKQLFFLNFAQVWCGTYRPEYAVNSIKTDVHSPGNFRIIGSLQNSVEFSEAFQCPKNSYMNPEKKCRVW

NL1 [2] = molecular target: T2, NL1 (Mus musculus, UniProt Q9JLI3); assay: HPLC analysis of the hydrolysis of Leu-enkephalin by NL1; type: biochemical; set-up: The soluble form of NL-1 was assayed for activity; made in house; host or cells: HEK 293 cells (section 2, pCDNA3/RSV); details: phosphoramidon 1 μM; Leu5-enkephalin; NL1 from medium of HEK/NL1 cells; RP-HPLC
T2 sequence (Q9JLI3 63-765 limits assumed): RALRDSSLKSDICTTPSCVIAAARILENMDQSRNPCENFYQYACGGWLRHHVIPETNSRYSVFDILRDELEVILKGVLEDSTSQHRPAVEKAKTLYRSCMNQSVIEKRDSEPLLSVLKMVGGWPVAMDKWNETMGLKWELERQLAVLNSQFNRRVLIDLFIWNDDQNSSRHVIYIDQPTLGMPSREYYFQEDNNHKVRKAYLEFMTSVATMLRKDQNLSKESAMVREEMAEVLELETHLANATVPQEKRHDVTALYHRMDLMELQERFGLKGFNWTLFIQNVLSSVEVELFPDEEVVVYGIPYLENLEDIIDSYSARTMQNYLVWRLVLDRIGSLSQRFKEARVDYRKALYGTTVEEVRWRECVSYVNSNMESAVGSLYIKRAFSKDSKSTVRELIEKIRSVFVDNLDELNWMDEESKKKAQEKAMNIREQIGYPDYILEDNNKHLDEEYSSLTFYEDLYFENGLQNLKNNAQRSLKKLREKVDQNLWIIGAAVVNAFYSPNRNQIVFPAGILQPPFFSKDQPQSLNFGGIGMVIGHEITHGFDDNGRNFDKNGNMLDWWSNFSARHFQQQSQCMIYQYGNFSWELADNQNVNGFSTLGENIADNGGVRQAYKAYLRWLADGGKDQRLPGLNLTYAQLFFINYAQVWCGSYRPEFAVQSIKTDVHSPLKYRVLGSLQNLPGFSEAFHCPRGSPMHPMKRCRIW
Description: (§1) Hydrolysis products were separated by reversed-phase HPLC as described previously.

NL1 [3] = molecular target: T2, NL1; assay: NL-1 enzymatic activity assay with (Tyrosyl-[3,5-3H])(D-Ala2)-Leu5-enkephalin as substrate; type: biochemical; set-up: The soluble form of NL-1 was assayed for activity; made in house; host or cells: CHO cells (section 1, pcDNA3-RSV) and HEK 293 cells (section 2, pCDNA3/RSV)
Protocol: (§2) Extracts of cellular proteins and culture media were assayed for enzymatic activity. Two tests were performed. The first used [^3H]-Tyr-(D)Ala2-Leu-enkephalin as substrate and was performed according to Lemay et al., (1989). The second used bradykinin as substrate and was performed as described by Raut et al. (1999).
NL1 activity was monitored and compared to sNEP activity using (Tyrosyl-[3,5-^3H])(D-Ala2)-Leu5-enkephalin (50 Ci/mmol) (Research Products International Inc.), as already described (Dion 1995; Devault 1988). Km values were determined by the isotope-dilution method.

sNEP = molecular target: T3, sNEP (Oryctolagus cuniculus, UniProt P08049); assay: HPLC analysis of the hydrolysis of Leu-enkephalin by sNEP; type: biochemical; details: phosphoramidon 1 μM, Leu5-enkephalin, RP-HPLC
T3 construct: Fusion of a cleavable signal peptide to the ectodomain of neutral endopeptidase; cleavable signal peptide of proopiomelanocortin (replaces cytosolic and transmembrane domains) (N, cleaved yes); made in house; host or cells: LLC-PK1 cells transfected with pRcCMV-sNEP; concentrated culture medium
T3 sequence (P08049 52-750 limits assumed): T1 sequence (P08049 52-750 limits assumed)
Description: as §1

soluble form of NL-3 = molecular target: T4, soluble form of NL-3 (Homo sapiens, UniProt O95672); assay: Soluble NL-3 activity assay with [3H]-Tyr-(D)Ala2-Leu-enkephalin as substrate; type: biochemical; details: soluble NL-3 from the NL-1 amino-terminal fusion
T4 construct: the ectodomain of NL-3 (from the third cysteine to the end) was spliced to NL-1 amino-terminal domain; mouse NL-1 amino-terminal domain (initiator methionine to the furin site) (N); made in house; host or cells: COS-1 and HEK 293 cells transfected with pRcCMV; spent culture medium
T4 sequence (O95672 83-775 limits assumed): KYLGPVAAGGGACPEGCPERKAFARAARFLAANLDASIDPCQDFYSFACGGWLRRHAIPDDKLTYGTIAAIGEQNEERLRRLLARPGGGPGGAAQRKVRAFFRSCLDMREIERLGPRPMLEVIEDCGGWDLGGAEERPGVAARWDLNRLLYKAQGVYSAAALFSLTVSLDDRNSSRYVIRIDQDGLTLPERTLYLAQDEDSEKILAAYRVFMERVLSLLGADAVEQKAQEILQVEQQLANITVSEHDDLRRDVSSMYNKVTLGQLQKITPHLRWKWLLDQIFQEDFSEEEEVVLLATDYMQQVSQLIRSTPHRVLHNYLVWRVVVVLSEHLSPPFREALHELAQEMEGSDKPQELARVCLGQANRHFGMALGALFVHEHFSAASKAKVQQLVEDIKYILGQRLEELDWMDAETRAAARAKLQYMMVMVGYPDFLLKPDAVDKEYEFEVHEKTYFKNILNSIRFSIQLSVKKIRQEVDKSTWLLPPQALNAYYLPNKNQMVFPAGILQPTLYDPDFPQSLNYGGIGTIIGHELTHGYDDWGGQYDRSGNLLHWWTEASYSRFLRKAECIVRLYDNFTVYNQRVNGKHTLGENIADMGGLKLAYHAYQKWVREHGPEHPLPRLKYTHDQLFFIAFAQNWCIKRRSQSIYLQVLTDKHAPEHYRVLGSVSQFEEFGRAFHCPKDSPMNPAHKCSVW
Protocol: as §2
The observation that NL-1 ectodomain was secreted, possibly through cleavage of the transmembrane segment by furin, raised the possibility to promote secretion of exogenous proteins that could be spliced to NL-1 amino-terminal domain (from initiator methionine to the furin site). To test this hypothesis, the ectodomain of NL-3 (from the third cysteine to the end) was spliced to NL-1 amino-terminal domain using a PCR strategy and the recombinant DNA cloned in expression vector pRcCMV. The fusion protein was expressed by transfection of the vector in COS-1 and HEK 293 cells. The culture media of transfected cells was analyzed by immunoblotting using the mouse antiserum against NL-3.

[4] = system: NL1 secretion (subtilisin-like convertase processing) in HEK 293 cells; assay: Immunoblot of culture media of HEK 293 cells co-expressing NL1 and α1-PDX; type: cell-based, Human; details: transient co-transfection, increasing amounts of α1-PDX plasmid; related to the amount
Protocol: Human Embryonic Kidney (HEK 293) cells were maintained in DMEM medium containing 10% fetal bovine serum (FBS), and supplemented with penicillin at 60 μg/ml, streptomycin at 100 μg/ml and fongizone at 0.25 μg/ml. Transfections of cells with appropriate plasmids were performed by the calcium/phosphate-DNA co-precipitation method (Chang 1987).
For immunoblot analysis, cells were incubated for 16 h in synthetic DMEM medium containing 2 mM sodium butyrate. Cellular proteins were solubilized as previously described (Dion 1995). Secreted proteins recovered in culture media were concentrated approximately 10 fold by ultrafiltration. Immunoblot analysis were performed using the NEN Renaissance kit with the polyclonal antibody specific to NL1 or the α1-antitrypsin inhibitor antibody (Calbiochem; LaJolla, Calif.) followed by the appropriate horseradish peroxidase-conjugated IgG (Vector Laboratories).
To determine whether a member of the mammalian subtilisine-like convertase family is responsible for NL1 presence in the culture medium of transfected cells, we co-transfected transiently HEK 293 cells with a constant amount of plasmid pCDNA3/RSV/NL1 and increasing amounts of plasmid pCDNA3/CMV/PDX (Benjannet 1997). This latter vector promotes the expression of the α1-antitrypsin Portland variant, α1-PDX, a known inhibitor of subtilisin-like convertases (Anderson 1993).

## CC(C)C[C@H](NP(=O)(O)O[C@@H]1O[C@@H](C)[C@H](O)[C@@H](O)[C@H]1O)C(=O)N[C@@H](Cc1c[nH]c2ccccc12)C(=O)O [phosphoramidon]
[1]; inhibition of sNEP/NEP activity
  IC50: 0.5 nM
NL1 [2]
  inhibition of enkephalin-degrading activity: completely inhibited
NL1 [3]; inhibition of NL-1 degradation of the enkephalin substrate
  IC50: 0.9 nM
sNEP
  inhibition of enkephalin-degrading activity: completely inhibited

## (Tyrosyl-[3,5-^3H])(D-Ala2)-Leu5-enkephalin ([Tyr(3,5-3H)][dA]GFL) [D-Ala2-Leu5-enkephalin]
[1]; substrate of sNEP, isotope-dilution method
  Km: 73 µM
NL1 [3]; fold lower for NL1 than NEP
  Km value of NL1 relative to NEP: 4- to 5 fold
NL1 [3]; substrate of soluble NL-1, isotope-dilution method
  Km: 18 µM
Soluble form of NL-3
  activity of soluble NL-3 on the substrate: No activity

## α1-PDX: α1-antitrypsin Portland variant, a known inhibitor of subtilisin-like convertases, expressed from plasmid pCDNA3/CMV/PDX
[4]
  effect on NL1 secretion: strongly inhibited
